Assay results taken from patent US20250275959A1, “COMPOUNDS AND METHODS OF THEIR USE” (LEXICON PHARMACEUTICALS, INC., priority 2024, published 2025).

Biological target: hACSL5 (Homo sapiens (Human), UniProt Q9ULC5)
Assay: Human ACSL5 coupled enzyme Amplex Red assay
Assay type: biochemical
Conditions: read-out: hACSL5 IC50
Experimental: Human ACSL5 (33-683) was cloned with a C-terminal 6 His tag and expressed in insect cells (sf9) as per standard insect cell expression protocols. Human ACSL5 was enriched by affinity nickel affinity chromatography followed by Superdex S200 gel filtration column equilibrated in 20 mM HEPES pH 7.8, 500 mM NaCl, 1 mM TCEP, 5% glycerol, 0.1% Triton X^100.
Inhibition of ACSL5 enzyme activity was monitored with a coupled enzyme Amplex Red assay.
The assay is carried out in 384-well microtiterplates. In a total volume of […], compounds are preincubated with 20 nM ACSL5, in a buffer containing 150 mM MOPS-NaOH, 12 mM MgCl2, 0.03% (v/v) Triton X-100, 2.79 U mL-1 Peroxidase and 24 U mL-1 Acyl-CoA Oxidase (pH 7.6). The reaction is started by the addition of substrate and co factors (25 μM oleate, 30 μM CoA, 1 mM ATP and 50 μM Amplex Red) and the fluorescence detected after 10 minutes at 25° C. with a fluorescence reader (BMG-Fluostar; BMG-Technologies) using an excitation wavelength of 535 nm and an emission wavelength of 590 nm.
Concentration-response titration points for each compound tested were filled to the Hill equation yielding concentrations of half maximal inhibition […] and maximal inhibition values.

hACSL5, sequence (Q9ULC5 33-683): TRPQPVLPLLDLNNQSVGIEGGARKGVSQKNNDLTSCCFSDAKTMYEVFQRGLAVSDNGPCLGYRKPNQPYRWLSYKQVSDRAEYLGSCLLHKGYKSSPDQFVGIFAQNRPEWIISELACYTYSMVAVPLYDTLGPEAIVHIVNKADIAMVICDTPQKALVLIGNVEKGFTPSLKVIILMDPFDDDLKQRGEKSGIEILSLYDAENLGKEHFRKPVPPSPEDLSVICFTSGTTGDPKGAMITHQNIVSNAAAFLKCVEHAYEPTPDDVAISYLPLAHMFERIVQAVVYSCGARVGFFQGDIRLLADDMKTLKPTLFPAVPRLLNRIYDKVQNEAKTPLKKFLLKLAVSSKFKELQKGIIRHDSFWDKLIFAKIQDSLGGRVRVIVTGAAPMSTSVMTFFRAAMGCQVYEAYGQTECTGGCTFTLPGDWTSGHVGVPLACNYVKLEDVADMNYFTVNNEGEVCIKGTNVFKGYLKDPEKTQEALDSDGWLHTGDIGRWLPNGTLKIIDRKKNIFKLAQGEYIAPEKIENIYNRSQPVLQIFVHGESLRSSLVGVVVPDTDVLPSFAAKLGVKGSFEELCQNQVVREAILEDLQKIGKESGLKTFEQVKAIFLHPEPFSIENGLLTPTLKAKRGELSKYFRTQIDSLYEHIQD

Row | Structure (SMILES) | IC50 [µM]
1 | CC[C@@H](Oc1ccc(C(=O)NS(=O)(=O)N2CCC(OC3CN(C)C3)CC2)c(F)c1F)c1ccc(OCC2CC2)cn1 [(R)-4-(1-(5-(cyclopropylmethoxy)pyridin-2-yl)propoxy)-2,3-difluoro-N-((4-((1-methylazetidin-3-yl)oxy)piperidin-1-yl)sulfonyl)benzamide] | 0.1 to 0.5
2 | CC[C@@H](Oc1ccc(C(=O)NS(=O)(=O)N2CC3=C(CN(C)C3)C2)c(F)c1F)c1ccc(OCC2CC2)cn1 [(R)-4-(1-(5-(cyclopropylmethoxy)pyridin-2-yl)propoxy)-2,3-difluoro-N-((5-methyl-3,4,5,6-tetrahydropyrrolo[3,4-c]pyrrol-2(1H)-yl)sulfonyl)benzamide] | 0.1 to 0.5
3 | CC[C@@H](Oc1ccc(C(=O)NS(=O)(=O)N2CC3(CN(C)C3)C2)c(F)c1F)c1ccc(OCC2CC2)cn1 [(R)-4-(1-(5-(cyclopropylmethoxy)pyridin-2-yl)propoxy)-2,3-difluoro-N-((6-methyl-2,6-diazaspiro[3.3]heptan-2-yl)sulfonyl)benzamide] | 0.1 to 0.5
4 | CC[C@@H](Oc1ccc(C(=O)NS(=O)(=O)N2CCC(OCCN(C)C)CC2)c(F)c1F)c1ccc(OCCOC)cn1 [(R)-N-((4-(2-(dimethylamino)ethoxy)piperidin-1-yl)sulfonyl)-2,3-difluoro-4-(1-(5-(2-methoxyethoxy)pyridin-2-yl)propoxy)benzamide] | > 0.5
5 | CC(Oc1ccc(C(=O)NS(=O)(=O)CCN)c(Cl)c1Cl)c1cccc(Oc2ccccc2)c1 (stereo not shown) [N-((2-aminoethyl)sulfonyl)-2,3-dichloro-4-(1-(3-phenoxyphenyl)ethoxy)benzamide] | 0.1 to 0.5
6 | CC(Oc1ccc(C(=O)NS(=O)(=O)CCCN2CCOCC2)cc1C(F)(F)F)c1ccc(Oc2cccnn2)cn1 (stereo not shown) [N-((3-morpholinopropyl)sulfonyl)-4-(1-(5-(pyridazin-3-yloxy)pyridin-2-yl)ethoxy)-3-(trifluoromethyl)benzamide] | 0.1 to 0.5
7 | NCCc1ccc(S(=O)(=O)NC(=O)c2ccc(OCc3cccc(Oc4ccccc4)c3)c(F)c2F)cc1 [N-((4-(2-aminoethyl)phenyl)sulfonyl)-2,3-difluoro-4-((3-phenoxybenzyl)oxy)benzamide] | 0.1 to 0.5
8 | CN(C)Cc1ccc(S(=O)(=O)NC(=O)c2ccc(OCc3cccc(Oc4ccccc4)c3)c(F)c2F)cc1 [N-((4-((dimethylamino)methyl)phenyl)sulfonyl)-2,3-difluoro-4-((3-phenoxybenzyl)oxy)benzamide] | 0.1 to 0.5
9 | CC(COc1ccc(C(=O)NS(=O)(=O)c2ccc(CN)cc2)c(Cl)c1Cl)c1cccc(Oc2ccccc2)c1 (stereo not shown) [N-((4-(aminomethyl)phenyl)sulfonyl)-2,3-dichloro-4-(2-(3-phenoxyphenyl)propoxy)benzamide] | 0.1 to 0.5
10 | NCc1ccc(S(=O)(=O)NC(=O)c2ccc(OCc3cccc(Oc4ccccc4)c3)c(Cl)c2Cl)cc1 [N-((4-(aminomethyl)phenyl)sulfonyl)-2,3-dichloro-4-((3-phenoxybenzyl)oxy)benzamide] | < 0.1
11 | CC(Oc1ccc(C(=O)NS(=O)(=O)c2ccc(CN)cc2)c(F)c1F)c1cccc(Oc2cccnc2)c1 (stereo not shown) [N-((4-(aminomethyl)phenyl)sulfonyl)-2,3-difluoro-4-(1-(3-(pyridin-3-yloxy)phenyl)ethoxy)benzamide] | < 0.1
12 | CC(Oc1ccc(C(=O)NS(=O)(=O)c2ccc(CN)cc2)c(F)c1F)c1cccc(Oc2ccccc2)c1 (stereo not shown) [N-((4-(aminomethyl)phenyl)sulfonyl)-2,3-difluoro-4-(1-(3-phenoxyphenyl)ethoxy)benzamide] | < 0.1
13 | NCc1ccc(S(=O)(=O)NC(=O)c2ccc(OCc3ccc(Oc4ccccc4)cc3)c(F)c2F)cc1 [N-((4-(aminomethyl)phenyl)sulfonyl)-2,3-difluoro-4-((4-phenoxybenzyl)oxy)benzamide] | > 0.5
14 | CC(Oc1ccc(C(=O)NS(=O)(=O)c2ccc(CN)cc2)cc1C(F)(F)F)c1cccc(Oc2cnn(C)c2)c1 (stereo not shown) [N-((4-(aminomethyl)phenyl)sulfonyl)-4-(1-(3-((1-methyl-1H-pyrazol-4-yl)oxy)phenyl)ethoxy)-3-(trifluoromethyl)benzamide] | > 0.5
15 | CCCC(C)COc1cccc(C(C)Oc2ccc(C(=O)NS(=O)(=O)c3ccc(CN)cc3)cc2C(F)(F)F)c1 (stereo not shown) [N-((4-(aminomethyl)phenyl)sulfonyl)-4-(1-(3-((2-methylpentyl)oxy)phenyl)ethoxy)-3-(trifluoromethyl)benzamide] | > 0.5
16 | CC(Oc1ccc(C(=O)NS(=O)(=O)c2ccc(CN)cc2)cc1C(F)(F)F)c1cccc(OCC2CCCC2)c1 (stereo not shown) [N-((4-(aminomethyl)phenyl)sulfonyl)-4-(1-(3-(cyclopentylmethoxy)phenyl)ethoxy)-3-(trifluoromethyl)benzamide] | > 0.5
17 | CC(Oc1ccc(C(=O)NS(=O)(=O)c2ccc(CN)cc2)c(F)c1F)c1cccc(OC2CCCC2)c1 (stereo not shown) [N-((4-(aminomethyl)phenyl)sulfonyl)-4-(1-(3-(cyclopentyloxy)phenyl)ethoxy)-2,3-difluorobenzamide] | 0.1 to 0.5
18 | CC(Oc1ccc(C(=O)NS(=O)(=O)c2ccc(CN)cc2)cc1C(F)(F)F)c1cccc(OC2CCCC2)c1 (stereo not shown) [N-((4-(aminomethyl)phenyl)sulfonyl)-4-(1-(3-(cyclopentyloxy)phenyl)ethoxy)-3-(trifluoromethyl)benzamide] | > 0.5
19 | CCCCCOc1cccc(C(C)Oc2ccc(C(=O)NS(=O)(=O)c3ccc(CN)cc3)cc2C(F)(F)F)c1 (stereo not shown) [N-((4-(aminomethyl)phenyl)sulfonyl)-4-(1-(3-(pentyloxy)phenyl)ethoxy)-3-(trifluoromethyl)benzamide] | 0.1 to 0.5
20 | CC(Oc1ccc(C(=O)NS(=O)(=O)c2ccc(CN)cc2)cc1C(F)(F)F)c1cccc(Oc2cnccn2)c1 (stereo not shown) [N-((4-(aminomethyl)phenyl)sulfonyl)-4-(1-(3-(pyrazin-2-yloxy)phenyl)ethoxy)-3-(trifluoromethyl)benzamide] | < 0.1
21 | CC(Oc1ccc(C(=O)NS(=O)(=O)c2ccc(CN)cc2)cc1C(F)(F)F)c1cccc(Oc2ccccn2)c1 (stereo not shown) [N-((4-(aminomethyl)phenyl)sulfonyl)-4-(1-(3-(pyridin-2-yloxy)phenyl)ethoxy)-3-(trifluoromethyl)benzamide] | < 0.1
22 | CC(Oc1ccc(C(=O)NS(=O)(=O)c2ccc(CN)cc2)cc1C(F)(F)F)c1cccc(Oc2cccnc2)c1 (stereo not shown) [N-((4-(aminomethyl)phenyl)sulfonyl)-4-(1-(3-(pyridin-3-yloxy)phenyl)ethoxy)-3-(trifluoromethyl)benzamide] | < 0.1
23 | CC(Oc1ccc(C(=O)NS(=O)(=O)c2ccc(CN)cc2)cc1C(F)(F)F)c1cccc(Oc2cncnc2)c1 (stereo not shown) [N-((4-(aminomethyl)phenyl)sulfonyl)-4-(1-(3-(pyrimidin-5-yloxy)phenyl)ethoxy)-3-(trifluoromethyl)benzamide] | 0.1 to 0.5
24 | CC(Oc1ccc(C(=O)NS(=O)(=O)c2ccc(CN)cc2)cc1C(F)(F)F)c1cccc(Oc2ccsc2)c1 (stereo not shown) [N-((4-(aminomethyl)phenyl)sulfonyl)-4-(1-(3-(thiophen-3-yloxy)phenyl)ethoxy)-3-(trifluoromethyl)benzamide] | < 0.1
25 | CC(COc1ccc(C(=O)NS(=O)(=O)c2ccc(CN)cc2)cc1C(F)(F)F)c1cccc(Oc2ccccc2)c1 (stereo not shown) [N-((4-(aminomethyl)phenyl)sulfonyl)-4-(2-(3-phenoxyphenyl)propoxy)-3-(trifluoromethyl)benzamide] | 0.1 to 0.5
26 | NCc1ccc(S(=O)(=O)NC(=O)c2ccc(OCC3CCCC3)c(C(F)(F)F)c2)cc1 [N-((4-(aminomethyl)phenyl)sulfonyl)-4-(cyclopentylmethoxy)-3-(trifluoromethyl)benzamide] | > 0.5
27 | CC[C@@H](Oc1ccc(C(=O)NS(=O)(=O)N2CCN(CC)CC2)c(F)c1F)c1ccc(OC2CC(OC)C2)cn1 (stereo partly drawn) [N-((4-ethylpiperazin-1-yl)sulfonyl)-2,3-difluoro-4-((R)-1-(5-((1R,3R)-3-methoxycyclobutoxy)pyridin-2-yl)propoxy)benzamide] | 0.1 to 0.5
28 | CC[C@@H](Oc1ccc(C(=O)NS(=O)(=O)N2CCN(CC)CC2)cc1C(F)(F)F)c1ccc(OC2CC(OC)C2)cn1 (stereo partly drawn) [N-((4-ethylpiperazin-1-yl)sulfonyl)-4-((R)-1-(5-((1R,3R)-3-methoxycyclobutoxy)pyridin-2-yl)propoxy)-3-(trifluoromethyl)benzamide] | 0.1 to 0.5
